Assay results: patent EP1893207B1, “USE OF SUBSTITUTED PIPERAZINE DERIVATIVES AND MORPHOLINE DERIVATIVES” (Merck Patent GmbH, priority 2005, dated 2006)

How the values were obtained:
[1] = biological target: Pilz-tyrosinase; assay: Tyrosinase assay (inhibition of the enzyme tyrosinase, L-DOPA substrate, optical density at 450 nm); format: biochemical; conditions: Tyrosinase 10 U, L-DOPA 4 mM, 1 h 37°C
Experimental: Die Wirkung der Verbindungen nach Formeln Ia bis IIp als Hautaufheller wird geprüft durch ihre Fähigkeit das Enzym Tyrosinase zu hemmen und damit die Melanin-Synthese zu unterbinden. Um die hemmende Wirkung der Verbindungen der Formeln Ia bis IIp gegenüber Tyrosinase zu zeigen wurden als Substrate Pilz-tyrosinase und L-Tyrosin oder L-DOPA verwendet und mit der Referenz-Verbindung verglichen.
Die Verbindungen Ia bis IIp und Tyrosinase (10 U) werden 10 Min. in Eis vorgekühlt und L-DOPA (4 mM) zugefügt und für 1 h auf 37°C gehalten. Es wird die optische Dichte jedes experimentell ermittelten Punktes bei 450 nm gegenüber der entsprechenden Referenz ohne Enzym gemessen. Kojicsäure wird als Tyrosinase-Referenz-Inhibitor benutzt. Die Versuchsergebnisse sind in der folgenden Tabelle 1 dargestellt, ausgedrückt durch den IC 50-Wert (d.h. die Konzentration der jeweiligen Versuchssubstanz bei der die Tyrosinase-Aktivität um 50% blockiert ist). Tab. 1 Tyrosinase-Versuchsergebnisse

[2] = test system: normale menschliche Melanocyten; assay: Melanin assay (melanin content of human melanocyte cultures, optical density at 405 nm); format: cell-based; conditions: 240 h incubation; for % Kontrolle normiert*: melanin content normalised; for % Kontrolle: melanin content
Excerpt: Das Potential der Verbindungen nach Formeln Ia bis IIp als Hautaufheller-Wirkstoff wurde außerdem durch den Melanin-Versuch verifiziert. Der Effekt in Bezug auf den Melanin-Gehalt von menschlichen epidermalen Melanocyten-Kulturen dieser Verbindungen wurde ermittelt und mit der Referenzverbindung (Kojicsäure) verglichen.
Eine vorausgehende Cytotoxizitäts-Studie der Verbindungen nach Formeln Ia bis IIp wurde durchgeführt um drei nicht-cytotoxische Konzentrationen für den Melanin-Versuch zu ermitteln.
Melanin-Versuch: normale menschliche Melanocyten wurden in 24 Lochplatten (110.000 Zellen/Loch) kultiviert. Bei 50 % Zusammenfluss wurde das Kulturmedium mit oder ohne (Kontrollverbindung) Verbindungen der Formeln Ia bis IIp durch frisches Kulturmedium in drei verschiedenen Konzentrationen ersetzt.
Nach der Inkubation (240 Stunden) wurden die Monolayers gewaschen, die Zellen lysiert und das Melanin extrahiert. Es wurde die optische Dichte jedes experimentellen Punktes bei 405 nm gegen den Melanin-Standard gemessen. Tabelle 2 zeigt die Ergebnisse zwei ausgewählter Verbindungen im Vergleich zur Kojicsäure und der Kontrollverbindung (mit 100% Melaningehalt), wobei der ermittelte Melaningehalt (in %) bei jeweils drei verschiedenen Konzentrationen angegeben ist. Tab. 2 Melanin-Versuchsergebnisse

c1ccc(CN2CCN(Cc3ccccn3)CC2)cc1 [IIk, 1-Benzyl-4-pyridin-2-ylmethyl-piperazin]
IC50 [1]: > 1000 µM

c1cc(CN2CCNCC2)ccn1 [IIn, 1-Pydridin-4-ylmethyl-piperazin]
IC50 [1]: 280 µM

c1cncc(CN2CCNCC2)c1 [IIo, 1-Pyridin-3-ylmethyl-piperazin]
IC50 [1]: 360 µM

c1ccc(CN2CCNCC2)nc1 [IIp, 1-Pyridin-2-ylmethyl-piperazin]
IC50 [1]: 553 µM

Oc1cccc(CN2CCN(Cc3ccccc3)CC2)c1O [Ia, 3-(4-Benzyl-piperazin-1-ylmethyl)-benzen-1,2-diol]
IC50 [1]: 134 µM | Melanin ([2]; Konzent. 0.8 µg/mL): 38.6 µg/mL | Melanin normiert* ([2]; Konzent. 0.8 µg/mL): 36.4 µglmL | % Kontrolle normiert* ([2]; Konzent. 0.8 µg/mL): 98% | % Kontrolle ([2]; Konzent. 0.8 µg/mL): 104%

Oc1ccc(CN2CCN(Cc3ccccc3)CC2)c(O)c1 [Ib, 4-(4-Benzyl-piperazin-1-ylmethyl)-benzen-1,3-diol]
IC50 [1]: 154 µM | Melanin ([2]; Konzent. 0.8 µg/mL): 37.8 µg/mL | Melanin normiert* ([2]; Konzent. 0.8 µg/mL): 37.1 µglmL | Melanin ([2]; Konzent. 4 µg/mL): 37.1 µg/mL | Melanin normiert* ([2]; Konzent. 4 µg/mL): 34.8 µglmL | % Kontrolle normiert* ([2]; Konzent. 0.8 µg/mL): 100% | % Kontrolle normiert* ([2]; Konzent. 4 µg/mL): 94% | % Kontrolle ([2]; Konzent. 0.8 µg/mL): 102% | % Kontrolle ([2]; Konzent. 4 µg/mL): 100%

Oc1cc(O)cc(CN2CCN(Cc3ccccc3)CC2)c1 [Id, 5-(4-Benzyl-piperazin-1-ylmethyl)-benzen-1,3-diol]
IC50 [1]: > 1000 µM

CCN1CCN(Cc2ccc(O)cc2O)CC1 [Ie, 4-(4-Ethyl-piperazin-1-ylmethyl)-benzen-1,3-diol]
IC50 [1]: 263 µM | Melanin ([2]; Konzent. 0.8 µg/mL): 37.3 µg/mL | Melanin normiert* ([2]; Konzent. 0.8 µg/mL): 36.5 µglmL | Melanin ([2]; Konzent. 4 µg/mL): 37.5 µg/mL | Melanin normiert* ([2]; Konzent. 4 µg/mL): 36.0 µglmL | Melanin ([2]; Konzent. 20 µg/mL): 33.8 µg/mL | Melanin normiert* ([2]; Konzent. 20 µg/mL): 32.9 µglmL | % Kontrolle normiert* ([2]; Konzent. 0.8 µg/mL): 98% | % Kontrolle normiert* ([2]; Konzent. 4 µg/mL): 97% | % Kontrolle normiert* ([2]; Konzent. 20 µg/mL): 88% | % Kontrolle ([2]; Konzent. 0.8 µg/mL): 100% | % Kontrolle ([2]; Konzent. 4 µg/mL): 101% | % Kontrolle ([2]; Konzent. 20 µg/mL): 91%

CC(C)(C)OC(=O)N1CCN(Cc2ccc(O)cc2O)CC1 [If, 4-(4-tert-Butoxycarbinyl-piperazin-1-ylmethyl)-benzen-1,3-diol]
IC50 [1]: 140 µM

Oc1ccc(CN2CCOCC2)c(O)c1 [Ih, 4-Morpholin-1-ylmethyl-benzen-1,3-diol]
IC50 [1]: 78 µM | Melanin ([2]; Konzent. 1.6 µg/mL): 37.2 µg/mL | Melanin normiert* ([2]; Konzent. 1.6 µg/mL): 37.0 µglmL | Melanin ([2]; Konzent. 8 µg/mL): 35.3 µg/mL | Melanin normiert* ([2]; Konzent. 8 µg/mL): 32.1 µglmL | Melanin ([2]; Konzent. 40 µg/mL): 30.6 µg/mL | Melanin normiert* ([2]; Konzent. 40 µg/mL): 30.4 µglmL | % Kontrolle normiert* ([2]; Konzent. 1.6 µg/mL): 99% | % Kontrolle normiert* ([2]; Konzent. 8 µg/mL): 86% | % Kontrolle normiert* ([2]; Konzent. 40 µg/mL): 82% | % Kontrolle ([2]; Konzent. 1.6 µg/mL): 100% | % Kontrolle ([2]; Konzent. 8 µg/mL): 95% | % Kontrolle ([2]; Konzent. 40 µg/mL): 82%

COc1ccc(CN2CCN(Cc3ccccc3)CC2)c(OC)c1 [Ii, 1-Benzyl-4-(2,4-dimethoxy-benzyl)-piperazin]
IC50 [1]: > 1000 µM

c1ccc(CN2CCN(Cc3ccc4c(c3)OCO4)CC2)cc1 [Ij, 1-Benzo[1,3]dioxol-5-ylmethyl-4-benzyl-piperazin]
IC50 [1]: 153 µM

O=c1cc(CO)occ1O [Kojicsäure, reference compound]
IC50 [1]: 12 µM | Melanin ([2]; Konzent. 6.8 µg/mL): 34.4 µg/mL | Melanin normiert* ([2]; Konzent. 6.8 µg/mL): 38.0 µglmL | Melanin ([2]; Konzent. 15.6 µg/mL): 30 µg/mL | Melanin normiert* ([2]; Konzent. 15.6 µg/mL): 34.6 µglmL | Melanin ([2]; Konzent. 36 µg/mL): 23.8 µg/mL | Melanin normiert* ([2]; Konzent. 36 µg/mL): 31.7 µglmL | % Kontrolle normiert* ([2]; Konzent. 6.8 µg/mL): 101% | % Kontrolle normiert* ([2]; Konzent. 15.6 µg/mL): 92% | % Kontrolle normiert* ([2]; Konzent. 36 µg/mL): 85% | % Kontrolle ([2]; Konzent. 6.8 µg/mL): 92% | % Kontrolle ([2]; Konzent. 15.6 µg/mL): 80% | % Kontrolle ([2]; Konzent. 36 µg/mL): 64%
